Results: the OligoGym collection
Several values for one entry are separate records, joined by “and”; a condition that tells them apart may be missing. Identical values can stand only once. These antisense oligonucleotides have a phosphorothioate backbone; sugars and methylation of C are not fully specified.

What follows are sequences tested against EGR1. Conditions: ASO.
Note: test concentration or dose not given here.

Sequence	remaining target (mRNA or protein) (fraction of control)
GGAATTGGCTCTGAGAAC	≥ 1
TGGGTGCAGGCTCCAGGG	≥ 1
TAATACAATAGAATATGC	≥ 1
GGGCGAGTGAGGAAAGGA	0.63

What follows are sequences tested against PIK3CD. Conditions: ASO.

Sequence	remaining target (mRNA or protein) (fraction of control)
CTGGGAGGAGCCACTACTGC	0.99 and 0.6
GGAGCCACTACTGCCTGTTG	0.86 and 0.31
CCACCCCAGGGGGCATCCTG	≥ 1 and 0.37
AATGAGTGTCATCCCGCCCT	0.4 and 0.14
CTGCGTTGTTACTTCCCAGA	≥ 1 and 0.41
TGGAATAGTCCAAGAAAGAC	≥ 1
AGTAGGCACCAGGTGACCGC	0.77 and 0.67
AATTCCCCAGAAAGTGGCCA	0.74 and 0.5
GTCGGTTCTTTCCCGTTAGG	0.52 and 0.35
ATGAAGGAGGCGTTTCCGTT	0.81 and 0.32
GGGCTGGGAGGAGCCACTAC	≥ 1
CGTTGCTCGTCCTCCAGCTC	0.47 and 0.27
GGAGGAGCCACTACTGCCTG	0.98 and 0.55
CGGCTGCTCCAGGGACCACA	0.63 and 0.38
CGGCCGCTCGTGCCGAATTC	0.96 and ≥ 1
AGCTGCCAGAACTCAGTCTA	0.53 and 0.48
GGGGCATCCTGCGTTGTTAC	≥ 1

Each sequence was assayed against PLA2G4A. Conditions: ASO.

Sequence	remaining target (mRNA or protein) (fraction of control)
CCCCTTTGTCACTTTGGT	0.33
GGTTGGGCAATCTTTCTC	≥ 1
AGCCCACTGTCCACTACA	0.2
ATGTGAGCCCACTGTCCA	≥ 1
ATAGCACTCCTTCAGCCC	≥ 1
CACTCCTTCAGCCCTTCC	≥ 1
CTTGTTCATTTTAGCCCA	≥ 1
AGAGGTAAAGGGCATTGT	≥ 1
GAAAAGAGGTAAAGGGCA	≥ 1
TCGGGAGCCATAAAAGTA	≥ 1
AGGCCATTATCATACGAT	≥ 1
GAACCAGAAACGCCCAAA	≥ 1
GATGGTTGGGCAATCTTT	≥ 1
GATGATGGTTGGGCAATC	≥ 1
CACTGCCCCAGACACCCA	≥ 1
GCCCAAAACTCTGTTGAA	0
AAGTCGGGAGCCATAAAA	0.87
AAACGCCCAAAACTCTGT	≥ 1
TAAATGTGAGCCCACTGT	≥ 1
ATCAAGGGATACGGCAGG	0.51

Sequence	remaining target (mRNA or protein) (fraction of control)
CAGAAACGCCCAAAACTC	0.43
AGCACTCCTTCAGCCCTT	0.29
GTGAACCAGAAACGCCCA	≥ 1
TTGTGAACCAGAAACGCC	0.08
AAGGGATACGGCAGGTTA	≥ 1
ATAAGTCGGGAGCCATAA	0.98
TGCCCCAGACACCCATTA	0.88
CATTTTAGCCCACTTTTC	≥ 1
CCAAATAAGTCGGGAGCC	0.09
TTTAGCCCACTTTTCTGC	0.07
TGAGATTCAAGCCCAGCA	0.41
TGAGCCCACTGTCCACTA	0.26
AAATCGTAGGTCTGGGCA	≥ 1
AAAGAGGTAAAGGGCATT	≥ 1
AGTGGATGATGGTTGGGC	≥ 1
CCCCACCTGAACCCAATA	≥ 1
ACCAGAAACGCCCAAAAC	0.21
AAATAAGTCGGGAGCCAT	≥ 1
CTCCTTCAGCCCTTCCCG	≥ 1
GTTCATTTTAGCCCACTT	≥ 1

What follows are sequences tested against SMAD1. Conditions: ASO.

Sequence	remaining target (mRNA or protein) (fraction of control)
CATAAGCAACCGCCTGAA	0.57
CCCACACGATTGTTGAGC	0.35
ATGCAAAAGGACAGCAGA	0.57
TGTTTGTGTCCATCGGCT	0.47
AGCATTCCAGTGGTTTTA	0.31
TCCTTCTGCTTGGAACCA	0.3
TGCTACTGTCACTAAGGC	0.12
CAGATGAAATAGGATTAT	0.55
AAATGACATGAGGCAGTC	0.54
TTTACAGAGAAGTCTCTT	≥ 1
CCAGTCAGCACCGGGTTG	0.8
ATTGATCTGGTCGCGCTG	0.69
GTAGGTGCTGCTGCTGCT	0.49
AGTGAGGAAACGGGTGGC	0.28
TAACATTGGAGAGCAGCC	0.29
ACATTCATAATGACAGCA	0.59
GTCCAGAAGAGTAGAAAT	0.44
TTCACCAAAGCATCAACA	0.18
TGAAACCATCCACCAACA	0.3
AGTGGCGTTGAGTGGCAT	0.75

Sequence	remaining target (mRNA or protein) (fraction of control)
GCAGCTCAAGGCCTTTTC	0.58
CCTCCACTCCTCAGCTGC	0.5
TCCATGGTTCACAGACTG	0.2
TGGATATGGTGAAATAAA	0.83
CAGCCTGCCATCCAGAGA	0.46
TGCTAGTAACATCCTGGC	0.25
TTTGTCCTAAGTTACGGA	0.64
TCGCCCTGTTTCCACCCA	0.1
GAGCCGCTCGGCCTCTCC	0.23
AAGGGCTTCCTGGGTCTG	0.53
AAAGATGAACTCCTTTTC	0.65
CCTCAGCTGCCAATACCC	0.47
GCTGGACTTGTAAAGGAA	0.57
ACAGTAGTAGGATGAAAT	0.41
CCGCCCGCCTGCTTTCTC	0.12
TTGTTTAAATTTCTGAAT	0.5
TGACTCATCCATCCTTCA	0.19
TTGGTCACAGAGGTCAAG	0.15
CTGAAGATCGGGCCAGCG	0.52

These sequences were tested against SMAD3. Conditions: ASO.

Sequence	remaining target (mRNA or protein) (fraction of control)
GCCCTGGTTGACCGACTG	0.83
CTTCCGATGTGTCTCCGT	0.39
TGCTCGCCCTTCTTCCAG	0.61
GGGAAGTTAGTGTTTTCG	≥ 1
TCTTGAGTTTCTTGACCA	≥ 1
CCATTTCTCCTCCTGCCC	0.62
CCTGTTGACATTGGAGAG	0.72
TTCTTCCAGCCCAGCAGG	≥ 1
TGCAGGTCCAAGTTATTA	0.81
TGGGTTGAGTAGAGTTCC	0.53
AGACCAAATGCCATCCCA	0.18
TGCATCGTGCGGGCTCTT	0.43
CTCCCCAGCCTTTGACGA	0.54
GCCTTCTCGCACCATTTC	0.92
TGCCCGTTCTGCTCGCCC	0.63
AGAACTGGTGTCTCTACT	0.51
GCGTGGCACCAACACAGG	≥ 1
GCGCTGGTTACAGTTGGG	≥ 1
CCCCTCCGATGTAGTAGA	0.54
GGTAGGGATTCACGCAGA	0.92

Sequence	remaining target (mRNA or protein) (fraction of control)
ACATTCGGGTCAACTGGT	0.48
GAACTCCTGGTTGTTGAA	≥ 1
TTAAGCCACCAGAGCAGA	≥ 1
GGGTCGGTGAAGCCATCC	≥ 1
TCTGGTGGTCACTGGTTT	0.64
GAGGCACTCTGCGAAGAC	0.49
CTCTGGGTTTGCTCGTGT	0.56
CCTCCCCATCCCAAGTCT	0.59
CCCCTACCATACTTGATG	0.38
GGAGGGCGTGCGGGCGGC	≥ 1
GAACACGCACCTCCCAAT	0.4
GCGAGGCGTGGAATGTCT	0.54
GGCTGTAGTCGTCCAGTG	0.65
TCTTCTTCCTTGACAACA	0.92
CTCTCTGGTAGTGGTAGG	0.8
CCAAGTTATTATGTGCTG	≥ 1
GTGCGGGCGGCGAGGAGC	0.86
CGATGTAGTAGAGCCGCA	0.42
ACAGGCGGCAGTAGATGA	≥ 1
